Where two headings read alike, the source gives them in different places.
Tests used:
[1] = system: P. berghei male gamete activation; assay: Exflagellation assay (male gametocyte activation); type: cell-based, Plasmodium berghei; conditions: 125 nM, positive control
Method: Exflagellation assays were performed to assess the effect of CB compounds on P. berghei male gametocyte activation ([19]). Tail blood from PYR-administered mice was mixed with DMSO, aphidicolin (125 nM), or CB compounds (10 µM) in complete ookinete medium and heparin (30 µg/mL) ([19]). After a 15-minute incubation, the sample was diluted in complete ookinete medium with 10 µM inhibitor and adjusted to a final blood concentration of 1:20. Exflagellations were quantified by counting all events in the middle squares of a hemocytometer. The effect of CB compounds on macrogamete formation was analyzed by flow cytometry using the anti-Pbs21 antibody ([65]). Following PYR administration, infected blood for cardiac puncture was cultured with CB compounds (10 µM) for 2 hours to stimulate gametocyte activation ([66]). Aliquots were then incubated with anti-Pbs21 antibody (1:500) for 1 hour, followed by anti-mouse IgG conjugated Alexa Fluor 594 (1:1,000) for another hour ([65]). Samples were centrifuged (3,000 × g for 3 minutes), pellets were resuspended in phosphate-buffered saline (PBS) and analyzed by flow cytometry (FACSCelesta, FACS Diva Software, BD Biosciences, San Jose, CA, USA) with 1 million events counted per experiment ([66]).

[2] = system: P. berghei ookinete development (Ookluc parasites); assay: P. berghei ookinete luciferase inhibition assay; type: cell-based, Plasmodium berghei; conditions: dose–response 2.5–75 µM
Method: Mice were pretreated with phenylhydrazine [6 mg/mL, intraperitoneal injection (IP)] 3 days before intravenous injection (IV) infection with P. berghei Ookluc parasites ([19], [62]). Once parasitemia exceeded 15%, the mice received PYR (1 mg/mL, IP) ([19], [62]). Twenty-four hours after PYR treatment, infected mice were assessed for at least 10 exflagellations before blood was collected by heart puncture ([19], [62]). Infected blood (1:20 dilution) was incubated with 8-point serial dilutions (2.5–75 µM) of CB compounds for 24 hours at 19°C with gentle shaking ([62], [64]). Relative luminescence units (RLU) of mature ookinetes were measured using the Promega Nano-Glo Luciferase Assay System Kit and a SpectraMax M3 Microplate Reader (Molecular Devices, San Jose, CA, USA) after 3 minutes. Giemsa blood smears confirmed ookinetes.

[3] = system: P. falciparum TM91c235; assay: Malaria SYBR Green I-Based Fluorescence (MSF) assay, blood stages; type: cell-based; conditions: Plasmodium falciparum; blood stages, 72 hours, multidrug resistant strain; read-out: IC50 (µM) (±SD) for strain: TM91c235
Method: (§1) MSF assays were performed in vitro with four P. falciparum strains: D6 (drug sensitive), TM91-C235 (multidrug resistant), W2 (CQ resistant), and C2B (multidrug resistant against ATQ). Parasite strains were kept continuously in long-term cultures as described ([22]). Pre-dosed 384-well plates containing […] serial dilutions of CB compounds (0.0098–20 µM) were prepared using the Tecan Freedom Evo liquid handling system (Tecan USA, Inc., Durham, NC, USA) and were stored at 4°C. A CQ control plate (2,000 ng/mL) was included in each run. Based on modifications of previous methods ([17], [55]), late-ring or early-trophozoite stages were cultured in pre-dosed plates with 0.3% parasitemia and 2% hematocrit. Cultures were incubated for 72 hours at 37°C in a controlled atmosphere of 5% CO2, 5% O2, and 90% N2. Lysis buffer, consisting of 20 mM Tris HCl, 5 mM EDTA, 1.6% Triton X, 0.016% saponin, and SYBR Green I dye at a 20X concentration (Invitrogen #S-7567), was added to the plates for a final 10X SYBR Green concentration. Plates containing cell culture media and lysis buffer were incubated in the dark at 25°C for 24 hours, and the relative fluorescence units (RFU) were measured using the Tecan Genios Plus (Tecan USA, Inc.).

[4] = system: P. falciparum W2; assay: as above; type: cell-based; conditions: Plasmodium falciparum, W2; blood stages, 72 hours, CQ resistant strain; read-out: IC50 (µM) (±SD) for strain: W2
Method: as §1

[5] = system: P. falciparum D6; assay: as above; type: cell-based; conditions: Plasmodium falciparum, D6; blood stages, 72 hours, drug-sensitive strain; read-out: IC50 (µM) (±SD) for strain: D6
Method: as §1

[6] = system: P. falciparum C2B; assay: as above; type: cell-based; conditions: Plasmodium falciparum, 72 h, read-out: IC50 (µM) (±SD) for strain: C2B
Method: as §1

[7] = in vitro; conditions: human, HepG2 cells
Method: HepG2 cell viability was assessed using the Cell Proliferation kit with trypan blue exclusion. […] After incubation, a 1.5-mg/mL Cell Proliferation kit solution diluted in complete MEM medium was added to each well, followed by 1-hour dark incubation at 25°C. After aspiration of media and inhibitors, the plates were dried in a hood for 15 minutes, and acidified isopropyl alcohol was added to dissolve formazan dye crystals. The plates were then rotated for 15–30 minutes, and absorbance was determined using a Perkin Elmer Ensight plate reader.

[8] = target: T1, recombinant P. falciparum GST (Plasmodium falciparum, UniProt Q8ILQ7); assay: GST inhibition assay (CDNB); type: biochemical
T1 construct: The open reading frames encoding PfGST, PbGST, and hGST were gene-synthesized; TEV cleavage site (C); Avitag (C); purchased InterRayBio, LLC; host or cells: E. coli BL21 (DE3)
T1 sequence (Q8ILQ7 1-211): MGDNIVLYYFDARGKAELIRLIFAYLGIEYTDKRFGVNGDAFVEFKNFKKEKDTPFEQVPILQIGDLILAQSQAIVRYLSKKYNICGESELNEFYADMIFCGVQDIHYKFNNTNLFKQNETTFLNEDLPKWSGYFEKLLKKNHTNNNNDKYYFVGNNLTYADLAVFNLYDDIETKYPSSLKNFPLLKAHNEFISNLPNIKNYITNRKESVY
Method: (§2) Enzymatic activities of recombinant GSTs were determined spectrophotometrically using the chromogenic substrate 1-chloro-2,4-dinitrobenzene (CDNB). Recombinant GST (0.35 mg/mL) was mixed with 1 mM CDNB in 100 mM HEPES. Stock solutions (10 mM) of the CB compounds and hemin were prepared in 100% dimethyl sulfoxide (DMSO) and then diluted at 0.5% DMSO ([14]). Each inhibitor has six concentrations ranging from 1 to 50 µM. The reaction was initiated with 1 mM glutathione (GSH) after 15 minutes. Absorbance change at 340 nm was measured for 1 hour. The slope was converted to micromole per minute using Beer’s equation and the extinction coefficient for the product S-(2,4-dinitrophenyl)glutathione (ε340 nm = 9.6 mM^–1 cm^–1) ([14]). The assay was validated using human placenta GST (#G8642) as a positive control.

[9] = target: T2, human GST (Homo sapiens, UniProt P08263); assay: GST inhibition assay (CDNB); type: biochemical
T2 construct: The open reading frames encoding PfGST, PbGST, and hGST were gene-synthesized; TEV cleavage site (C); Avitag (C); purchased InterRayBio, LLC; host or cells: E. coli BL21 (DE3)
T2 sequence (P08263 1-222): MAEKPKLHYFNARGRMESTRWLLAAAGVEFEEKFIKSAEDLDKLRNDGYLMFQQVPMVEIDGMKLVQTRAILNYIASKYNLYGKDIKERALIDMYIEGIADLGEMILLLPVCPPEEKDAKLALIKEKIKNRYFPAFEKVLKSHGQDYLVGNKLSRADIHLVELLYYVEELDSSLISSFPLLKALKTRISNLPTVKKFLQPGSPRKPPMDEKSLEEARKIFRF
Method: as §2

[10] = system: P. cynomolgi hypnozoites and hepatic schizonts; assay: P. cynomolgi liver-stage inhibition assay; type: cell-based, Plasmodium cynomolgi; conditions: Plasmodium cynomolgi, prophylactic drug treatment mode
Method: (§3) Primary primate hepatocytes were seeded in 384-well plates and used within 2–4 days ([56]). P. cynomolgi B strain parasites were inoculated and developed into hypnozoites and schizonts. CB compounds were tested in 8-point, threefold serial dilutions (100 µM to […]) for both prophylactic (4 days starting with sporozoite addition) and radical cure (4 days starting day 4 post-inoculation) modalities ([56][–][60]). The Operetta CLS imaging system and Harmony Software 4.9 (Perkin Elmer, Waltham, MA, USA) analyzed the plates, and the percentage of inhibition (PI) was calculated in Python using equation (1), where parasitic quantities (hypnozoite and schizont counts) were normalized to the negative control ([57]). Each plate included negative (DMSO) and positive (KDU691, maduramicin, tafenoquine) controls ([58]). IC50 values were determined using an 8-point, threefold dilution format and a Python-adapted grid algorithm for fitting PI to a four-parameter logistic function ([61]).
PI = 100 ∗(1−(xy/Meanneg))

[11] = system: recombinant P. berghei GST; assay: GST inhibition assay (CDNB); type: biochemical, Plasmodium berghei
Method: as §2

[12] = system: primary primate hepatocytes; assay: hepatocyte toxicity in the P. cynomolgi liver-stage assay; type: cell-based
Method: as §3

[13] = system: P. berghei blood-stage parasites; assay: P. berghei blood-stage isobolograms; type: cell-based, Plasmodium berghei; conditions: LUM in combination with DHA (positive control)
Method: Antimalarial activity and IC50 values of CB-61 and five antimalarial drugs were assessed using the previously described in vitro drug luminescence assay ([14], [68]). Blood-stage isobolograms were performed to confirm synergistic combinations between CB-61 and the five drugs, following established protocols ([69]). Thirty-two-fold IC50 concentrations were used to obtain six concentration ranges for each drug combination, and then they were serially diluted five times ([67]). IC50 scores for each drug alone were determined, and FIC50 values (FIC50 = […]) were calculated and plotted ([70], [71]). The Promega Luciferase Assay System Kit was used to measure mature schizonts’ RLUs, and Giemsa blood smears confirmed the presence of schizonts ([14]).

[14] = recombinant GST 0.35 mg/mL, 1–50 µM

C[C@@]1(CO)[C@H](O)CC[C@@]2(C)[C@H]1CC[C@H]1C[C@@H]3C[C@@]12CC[C@]3(O)CO [aphidicolin]
number of exflagellation events [1]: < 50%

O=C(Nc1cc(Cl)ccc1O)c1cc2nc(-c3ccccc3)cc(-c3ccccc3)n2n1 [CB-59]
activity in ookinete formation [2]: no activity
IC50 [3]: 2.96 µM
IC50 [4]: 0.69 µM
IC50 [5]: 1.73 µM
IC50 [6]: 2.91 µM
IC50 at 48 h [7]: > 20 µM
GST inhibition ([8]; 6-point 1–50 µM): did not inhibit
GST inhibition ([9]; 6-point 1–50 µM): did not inhibit
IC50 ([10]; read-out: Hypnozoite IC50): > 10 µM
IC50 ([10]; read-out: Schizont IC50): > 10 µM
IC50 ([10]; read-out: Total parasite IC50): > 10 µM
GST inhibition ([11]; 6-point 1–50 µM): did not inhibit
Toxicity [12]: >10 µM

CCCCN(CCCC)CC(O)c1cc(Cl)cc2c1-c1ccc(Cl)cc1/C2=C/c1ccc(Cl)cc1 (stereo not drawn) [LUM, lumefantrine, reference compound]
Mean ΣFIC50 [13]: 0.74

Hemin [reference compound]
IC50 [8, 14]: 1.6 µM
IC50 [9, 14]: < 1 µM
IC50 [11, 14]: 16.1 µM
